Laboratory results reported in ChEMBL document CHEMBL5376003, “Structure-Activity Relationship of FL118 Platform Position 7 Versus Position 9-Derived Compounds and Their Mechanism of Action and Antitumor Activity” (J Med Chem, 2023).
The source made the active and inactive calls. The rule behind the calls is not given here.

What was measured:
[1] = tested on: HCT-116; assay: Induction of apoptosis in human HCT-116 cells assessed as downregulation of HPRT1 gene expression at 10 to 500 nM incubated for 6 to 48 hrs by RNA analysis; assay type: functional, cell-based; conditions: dose 10-500 nM, time 6-48 hrs
[2] = tested on: HCT-116; assay: Induction of apoptosis in human HCT-116 cells assessed as downregulation of SEH1L gene expression at 10 to 500 nM incubated for 6 to 48 hrs by RNA analysis; assay type: functional, cell-based; conditions: dose 10-500 nM, time 6-48 hrs
[3] = tested on: HCT-116; assay: Induction of apoptosis in human HCT-116 cells assessed as downregulation of NUDT15 gene expression at 10 to 500 nM incubated for 6 to 48 hrs by RNA analysis; assay type: functional, cell-based; conditions: dose 10-500 nM, time 6-48 hrs
[4] = tested on: HCT-116; assay: Induction of apoptosis in human HCT-116 cells assessed as downregulation of PCK2 gene expression at 10 to 500 nM incubated for 6 to 48 hrs by RNA analysis; assay type: functional, cell-based; conditions: dose 10-500 nM, time 6-48 hrs
[5] = tested on: PDX14244; assay: Antitumor activity against human PDX14244 cells xenografted in SCID mouse model assessed as reduction in tumor volume at 2 mg/kg,po administrated once per week for 3 weeks; assay type: functional, organism-based
[6] = tested on: HCT-116; assay: Induction of apoptosis in human HCT-116 cells assessed as downregulation of NT5C3A gene expression at 10 to 500 nM incubated for 6 to 48 hrs by RNA analysis; assay type: functional, cell-based; conditions: dose 10-500 nM, time 6-48 hrs
[7] = tested on: HeLa; assay: Growth inhibition of human HeLa cells incubated for 48 hrs by MTT reagent based ELISA reader analysis; assay type: functional, cell-based
[8] = tested on: HCT-116; assay: Induction of apoptosis in human HCT-116 cells assessed as upregulation of XPC mRNA expression at 10 to 500 nM incubated for 6 to 48 hrs by RNA analysis; assay type: functional, cell-based; conditions: dose 10-500 nM, time 6-48 hrs
[9] = tested on: HCT-116; assay: Induction of apoptosis in human HCT-116 cells assessed as downregulation of NUDT1 gene expression at 10 to 500 nM incubated for 6 to 48 hrs by RNA analysis; assay type: functional, cell-based; conditions: dose 10-500 nM, time 6-48 hrs
[10] = tested on: HCT-116; assay: Induction of apoptosis in human HCT-116 cells assessed as upregulation of BIK mRNA expression at 10 to 500 nM incubated for 6 to 48 hrs by RNA analysis; assay type: functional, cell-based; conditions: dose 10-500 nM, time 6-48 hrs
[11] = tested on: HCT-116; assay: Activation of innate immune response in human HCT-116 cells assessed as upregulation of CASP1 gene expression at 10 to 500 nM incubated for 6 to 48 hrs by RNA analysis; assay type: functional, cell-based; conditions: dose 10-500 nM, time 6-48 hrs
[12] = tested on: HCT-116; assay: Induction of apoptosis in human HCT-116 cells assessed as modulation of DDX55 mRNA expression at 10 to 500 nM incubated for 6 to 48 hrs by RNA analysis; assay type: functional, cell-based; conditions: dose 10-500 nM, time 6-48 hrs
[13] = tested on: HCT-116; assay: Induction of apoptosis in human HCT-116 cells assessed as downregulation of NUP133 gene expression at 10 to 500 nM incubated for 6 to 48 hrs by RNA analysis; assay type: functional, cell-based; conditions: dose 10-500 nM, time 6-48 hrs
[14] = tested on: HCT-116; assay: Induction of apoptosis in human HCT-116 cells assessed as downregulation of ADSL gene expression at 10 to 500 nM incubated for 6 to 48 hrs by RNA analysis; assay type: functional, cell-based; conditions: dose 10-500 nM, time 6-48 hrs
[15] = tested on: HCT-116; assay: Induction of apoptosis in human HCT-116 cells assessed as downregulation of NT5C2 gene expression at 10 to 500 nM incubated for 6 to 48 hrs by RNA analysis; assay type: functional, cell-based; conditions: dose 10-500 nM, time 6-48 hrs
[16] = tested on: HCT-116; assay: Induction of apoptosis in human HCT-116 cells assessed as upregulation of CDKN1A mRNA expression at 10 to 500 nM incubated for 6 to 48 hrs by RNA analysis; assay type: functional, cell-based; conditions: dose 10-500 nM, time 6-48 hrs
[17] = tested on: HCT-116; assay: Induction of apoptosis in human HCT-116 cells assessed as downregulation of TYMS gene expression at 10 to 500 nM incubated for 6 to 48 hrs by RNA analysis; assay type: functional, cell-based; conditions: dose 10-500 nM, time 6-48 hrs
[18] = tested on: HCT-116; assay: Induction of apoptosis in human HCT-116 cells assessed as downregulation of AMPD3 gene expression at 10 to 500 nM incubated for 6 to 48 hrs by RNA analysis; assay type: functional, cell-based; conditions: dose 10-500 nM, time 6-48 hrs
[19] = tested on: HCT-116; assay: Induction of apoptosis in human HCT-116 cells assessed as downregulation of AK2 gene expression at 10 to 500 nM incubated for 6 to 48 hrs by RNA analysis; assay type: functional, cell-based; conditions: dose 10-500 nM, time 6-48 hrs
[20] = tested on: HCT-116; assay: Induction of apoptosis in human HCT-116 cells assessed as upregulation of ATF3 mRNA expression at 10 to 500 nM incubated for 6 to 48 hrs by RNA analysis; assay type: functional, cell-based; conditions: dose 10-500 nM, time 6-48 hrs
[21] = tested on: HCT-116; assay: Induction of apoptosis in human HCT-116 cells assessed as downregulation of NT5C gene expression at 10 to 500 nM incubated for 6 to 48 hrs by RNA analysis; assay type: functional, cell-based; conditions: dose 10-500 nM, time 6-48 hrs
[22] = tested on: MCF7; assay: Growth inhibition of human MCF7 cells incubated for 48 hrs by MTT reagent based ELISA reader analysis; assay type: functional, cell-based; conditions: MCF7, 48 h
[23] = tested on: HCT-116; assay: Induction of apoptosis in human HCT-116 cells assessed as downregulation of HK2 gene expression at 10 to 500 nM incubated for 6 to 48 hrs by RNA analysis; assay type: functional, cell-based; conditions: dose 10-500 nM, time 6-48 hrs
[24] = tested on: HCT-116; assay: Induction of apoptosis in human HCT-116 cells assessed as downregulation of DTYMK gene expression at 10 to 500 nM incubated for 6 to 48 hrs by RNA analysis; assay type: functional, cell-based; conditions: dose 10-500 nM, time 6-48 hrs
[25] = tested on: HCT-116; assay: Inhibition of cell migration in human HCT-116 cells assessed as intercellular distance at 5 nM by inverted phase-contrast microscopic analysis (reference value: 2.5 +/- 0.7 millimeter); assay type: functional
[26] = tested on: HCT-116; assay: Induction of apoptosis in human HCT-116 cells assessed as downregulation of TK1 gene expression at 10 to 500 nM incubated for 6 to 48 hrs by RNA analysis; assay type: functional, cell-based; conditions: dose 10-500 nM, time 6-48 hrs
[27] = tested on: HepG2; assay: Growth inhibition of human HepG2 cells incubated for 48 hrs by MTT reagent based ELISA reader analysis; assay type: functional, cell-based; conditions: HepG2, 48 h
[28] = tested on: HCT-116; assay: Induction of apoptosis in human HCT-116 cells assessed as modulation of DDX19B mRNA expression at 10 to 500 nM incubated for 6 to 48 hrs by RNA analysis; assay type: functional, cell-based; conditions: dose 10-500 nM, time 6-48 hrs
[29] = tested on: HCT-116; assay: Induction of apoptosis in human HCT-116 cells assessed as downregulation of ADPGK gene expression at 10 to 500 nM incubated for 6 to 48 hrs by RNA analysis; assay type: functional, cell-based; conditions: dose 10-500 nM, time 6-48 hrs
[30] = tested on: HCT-116; assay: Induction of apoptosis in human HCT-116 cells assessed as downregulation of BIRC5 mRNA expression at 10 to 500 nM incubated for 6 to 48 hrs by RNA analysis; assay type: functional, cell-based; conditions: dose 10-500 nM, time 6-48 hrs
[31] = tested on: HCT-116; assay: Induction of apoptosis in human HCT-116 cells assessed as downregulation of CTPS2 gene expression at 10 to 500 nM incubated for 6 to 48 hrs by RNA analysis; assay type: functional, cell-based; conditions: dose 10-500 nM, time 6-48 hrs
[32] = tested on: HCT-116; assay: Inhibition of cell migration in human HCT-116 cells assessed as intercellular distance at 5 nM incubated for 24 hrs by inverted phase-contrast microscopic analysis (reference value: 1 +/- 0.2 millimeter); assay type: functional
[33] = tested on: HCT-116; assay: Induction of apoptosis in human HCT-116 cells assessed as downregulation of NME4 gene expression at 10 to 500 nM incubated for 6 to 48 hrs by RNA analysis; assay type: functional, cell-based; conditions: dose 10-500 nM, time 6-48 hrs
[34] = tested on: HCT-116; assay: Induction of apoptosis in human HCT-116 cells assessed as increase in intracellular ROS level at 10 to 1000 nM incubated for 12 hrs by DCFH-DA staining based fluorescence microscopy; assay type: functional, cell-based; conditions: dose 10-1000 nM

Structure (SMILES) | Activity [2] | Activity [4] | Activity [6] | IC50 [7] | Activity [8] | Activity [9] | Activity [10] | Activity [12] | Activity [13] | Activity [14] | Activity [15] | Activity [16] | Activity [17] | Activity [18] | Activity [19] | Activity [20] | Activity [21] | IC50 [22] | Activity [23] | Activity [24] | further results
CC[C@@]1(O)C(=O)OCc2c1cc1n(c2=O)Cc2c-1nc1cc3c(cc1c2-c1ccc(OC)cc1)OCO3 | Active | Active | Active | 48.3 nM | Active | Active | Active | Active | Active | Active | Active | Active | Active | Active | Active | Active | Active | 45.8 nM | Active | Active | Activity [1]: Active; Activity [3]: Active; Activity [5]: Active; Activity [11]: Active; Activity [25]: 2.8 mm; Activity [26]: Active; IC50 [27]: 64 nM; Activity [28]: Active; Activity [29]: Active; Activity [30]: Active; Activity [31]: Active; Activity [32]: 1.3 mm; Activity [33]: Active; Activity [34]: Active
CC[C@@]1(O)C(=O)OCc2c1cc1n(c2=O)Cc2cc3cc4c(cc3nc2-1)OCO4 | Active | Active | Active | 32.4 nM | Active | Active | Active | Active | Active | Active | Active | Active | Active | Active | Active | Active | Active | 32.2 nM | Active | Active | Activity [1]: Active; Activity [3]: Active; Activity [11]: Active; Activity [25]: 2.6 mm; Activity [26]: Active; IC50 [27]: 39.5 nM; Activity [28]: Active; Activity [29]: Active; Activity [30]: Active; Activity [31]: Active; Activity [32]: 1.3 mm; Activity [33]: Active; Activity [34]: Active
CC[C@@]1(O)C(=O)OCc2c1cc1n(c2=O)Cc2c-1nc1cc3c(cc1c2-c1cc(OC)cc(OC)c1)OCO3 | Active | Active | Active | < 6.4 nM | Active | Active | Active | Active | Active | Active | Active | Active | Active | Active | Active | Active | Active | < 6.4 nM | Active | Active | Activity [5]: Active; Activity [25]: 2.7 mm; Activity [26]: Active; IC50 [27]: 118 nM; Activity [28]: Active; Activity [30]: Active; Activity [31]: Active; Activity [32]: 1.5 mm; Activity [33]: Active; Activity [34]: Active
CCc1ccc(-c2c3c(nc4cc5c(cc24)OCO5)-c2cc4c(c(=O)n2C3)COC(=O)[C@]4(O)CC)cc1 | Active | Active | Active | 37.5 nM | Active | Active | Active | Active | Active | Active | Active | Active | Active | Active | Active | Active | Active | 47.4 nM | Active | Active | Activity [1]: Active; Activity [3]: Active; Activity [5]: Active; Activity [11]: Active; Activity [25]: 2.6 mm; Activity [26]: Active; IC50 [27]: 160 nM; Activity [28]: Active; Activity [29]: Active; Activity [30]: Active; Activity [31]: Active; Activity [32]: 1.3 mm; Activity [33]: Active; Activity [34]: Active
